Experimental data: patent publication US6432997B1, “Pyrazole pesticides” (Rhone-Poulenc, Inc., priority 1997, dated 2002)

How the values were obtained:
[1] = tested on: southern armyworm, cotton aphid, tobacco budworm and greenbug; assay: Systemic tests (soil drench / root uptake, systemic evaluation); format: in vivo
Experimental: For southern root-knot nematode and systemic tests for southern armyworm, cotton aphid, tobacco budworm and greenbug, a stock solution or suspension was prepared by adding 15 mg of the test compound to 250 mg of dimethylformamide, 1250 mg of acetone and 3 mg of the emulsifier blend referenced above. Water was then added to provide a test compound concentration of 150 ppm. When necessary, sonication was provided to insure complete dispersion.
Southern armyworm on tomato—systemic evaluation: This test was conducted in conjunction with the southern root-knot nematode evaluation (discussed below). The tomato plants, grown in the soil (at an initial compound test screening rate of 6.6 ppm soil concentration or about 150 ppm solution concentration) for nematode evaluation, were then utilized for evaluation of a compound's uptake via roots and subsequent systemic transport to the tomato foliage. […]
Cotton aphid and tobacco budworm (on cotton) and greenbug and tobacco budworm (on sorghum)—systemic evaluation: A 7.0 ml aliquot of the 150 ppm nematode test solution was applied to deliver the equivalent of 10.0 ppm soil concentration dose as a drench to 6 cm pots containing cotton and sorghum plants. […] Again at six days, the plants were rated for aphid activity and the cotton aphids and greenbugs were counted and mortality was assessed. […] Mortality was assessed six days after infestation. […]

Lucilia sericata = details: single species; from WO 92/13451 (Schering Agrochemicals Ltd.); cited from earlier work

| Substance | activity in the systemic tests [1] | activity against Lucilia sericata (Lucilia sericata) |
| --- | --- | --- |
| 5-Amino-1-[2,6-dichloro-4-(trifluoromethyl)phenyl]-4-trifluoromethylsulfinyl-N-hydroxy-N-methyl-1H-pyrazole carboximidamide [Compound 2] | particularly good activity |  |
| 5-chloro-1-[2,6-dichloro-4-(trifluoromethyl)phenyl]-4-(4,5-1H-pyrazole |  | activity against a single species Lucilia sericata |
| 5-Amino-1-[2,6-dichloro-4-(trifluoromethyl)phenyl]-4-methylsulfinyl-N-hydroxy-N-methyl-1H-pyrazole carboximidamide [Compound 1] | particularly good activity |  |
